SMILES strings stand for the structures. Counter-ions that a name gives are not always drawn. Where only a bound is given, the exact number is not on record here.

For one assay, the target named is T1, Bovine LOX (Bos taurus, UniProt P33072).
T1 sequence (P33072 170-418): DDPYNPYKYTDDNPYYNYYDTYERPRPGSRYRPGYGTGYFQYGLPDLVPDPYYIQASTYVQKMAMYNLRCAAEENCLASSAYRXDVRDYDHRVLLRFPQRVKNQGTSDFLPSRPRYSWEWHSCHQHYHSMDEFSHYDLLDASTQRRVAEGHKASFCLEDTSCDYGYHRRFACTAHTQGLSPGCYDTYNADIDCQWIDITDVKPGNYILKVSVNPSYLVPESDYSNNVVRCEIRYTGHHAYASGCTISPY
The experiment in a line: LOX amine oxidase inhibition, peroxidase-coupled Amplex Red assay. Type of assay: biochemical. Conditions: 30 min preincubation at 37° C., putrescine substrate. An excerpt:
(§1) Method to Determine the Ability of Compounds of the Invention to Inhibit LOX and LOXL1-4 from Different Sources
Lysyl oxidase (LOX) is an extracellular copper dependent enzyme which oxidizes peptidyl lysine and hydroxylysine residues in collagen and lysine residues in elastin to produce peptidyl alpha-aminoadipic-delta-semialdehydes. […] There are five LOX family members; these are LOX, LOXL1, LOXL2, LOXL3 and LOXL4. LOX and LOXL family members can be acquired as recombinant active proteins from commercial sources, or extracted from animal tissues like bovine aorta, tendons, pig skin; or prepared from cell cultures. The inhibitory effects of the compounds of the present invention were tested against the given LOX-LOXL preparation using a high-throughput coupled colorimetric method (Holt A. and Palcic M., A peroxidase-coupled continuous absorbance plate-reader assay for flavin monoamine oxidases, copper-containing amine oxidases and related enzymes. Nat. Protoc. 2006; 1: 2498-2505). The assay was developed using either 384 or 96 well format. Briefly, in a standard 384 well plate assay 25 μL of a dilution of any of the isoenzymes and orthologues in 1.2 M urea, 50 mM sodium borate buffer (pH 8.2) were added into each well in the presence of 1 μM mofegiline and 0.5 mM pargyline (to inhibit SSAO and MAO-B and MAO-A, respectively). […] Twenty five μL of a reaction mixture containing twice the KM concentration of putrescine (Sigma Aldrich, e.g. 20 mM for LOX, or 10 mM for LOXL2 and LOXL3), 120 μM Amplex Red (Sigma Aldrich) and 1.5 U/mL horseradish peroxidase (Sigma Aldrich) prepared in 1.2 M urea, 50 mM sodium borate buffer (pH 8.2) were then added to the corresponding wells. The above volumes were doubled in the case of 96 wells plate. The fluorescence (RFU) was read every 2.5 min for 30 min at a range of temperatures from 37° to 45° C., excitation 565 nm and emission 590 (Optima; BMG labtech). The slope of the kinetics for each well was calculated using MARS data analysis software (BMG labtech) and this value was used to deduce the IC50 value (Dotmatics).

The target of the next assay is T2, Human LOXL2 (Homo sapiens, UniProt Q9Y4K0).
T2 sequence (Q9Y4K0 26-774): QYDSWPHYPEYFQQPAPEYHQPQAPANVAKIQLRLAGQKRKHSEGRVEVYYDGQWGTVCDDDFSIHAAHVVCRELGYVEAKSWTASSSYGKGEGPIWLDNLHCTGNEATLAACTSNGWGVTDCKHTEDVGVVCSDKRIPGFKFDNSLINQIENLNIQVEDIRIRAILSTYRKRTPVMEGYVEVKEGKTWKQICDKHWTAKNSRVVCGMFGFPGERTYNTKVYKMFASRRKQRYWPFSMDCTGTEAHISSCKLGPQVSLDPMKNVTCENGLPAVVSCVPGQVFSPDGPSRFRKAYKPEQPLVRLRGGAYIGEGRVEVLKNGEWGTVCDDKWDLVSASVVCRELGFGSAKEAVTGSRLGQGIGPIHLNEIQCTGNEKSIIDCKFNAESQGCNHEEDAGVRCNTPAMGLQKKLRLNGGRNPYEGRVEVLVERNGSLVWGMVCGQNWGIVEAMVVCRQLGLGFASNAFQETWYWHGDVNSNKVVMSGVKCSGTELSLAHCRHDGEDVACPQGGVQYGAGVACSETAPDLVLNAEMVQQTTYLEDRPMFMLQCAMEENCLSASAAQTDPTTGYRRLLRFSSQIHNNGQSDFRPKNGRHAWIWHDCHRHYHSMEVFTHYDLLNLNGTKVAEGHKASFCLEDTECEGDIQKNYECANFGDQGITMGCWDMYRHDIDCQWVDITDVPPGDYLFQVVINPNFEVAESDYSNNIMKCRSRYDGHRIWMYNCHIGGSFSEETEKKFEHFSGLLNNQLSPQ
The assay is described as follows: LOXL2 amine oxidase inhibition, peroxidase-coupled Amplex Red assay. Conditions: 30 min preincubation at 37° C., putrescine substrate. It is filed as biochemical.
Source text: as §1
Lysyl oxidase (LOX) is an extracellular copper dependent enzyme which oxidizes peptidyl lysine and hydroxylysine residues in collagen and lysine residues in elastin to produce peptidyl alpha-aminoadipic-delta-semialdehydes. […] There are five LOX family members; these are LOX, LOXL1, LOXL2, LOXL3 and LOXL4. LOX and LOXL family members can be acquired as recombinant active proteins from commercial sources, or extracted from animal tissues like bovine aorta, tendons, pig skin; or prepared from cell cultures. The inhibitory effects of the compounds of the present invention were tested against the given LOX-LOXL preparation using a high-throughput coupled colorimetric method (Holt A. and Palcic M., A peroxidase-coupled continuous absorbance plate-reader assay for flavin monoamine oxidases, copper-containing amine oxidases and related enzymes. Nat. Protoc. 2006; 1: 2498-2505). The assay was developed using either 384 or 96 well format. Briefly, in a standard 384 well plate assay 25 μL of a dilution of any of the isoenzymes and orthologues in 1.2 M urea, 50 mM sodium borate buffer (pH 8.2) were added into each well in the presence of 1 μM mofegiline and 0.5 mM pargyline (to inhibit SSAO and MAO-B and MAO-A, respectively). Test compounds were dissolved in DMSO and tested in a Concentration Response Curve (CRC) with 11 data points, typically in the micromolar or nanomolar range after incubation with the enzyme for 30 min at 37° C. Twenty five μL of a reaction mixture containing twice the KM concentration of putrescine (Sigma Aldrich, e.g. 20 mM for LOX, or 10 mM for LOXL2 and LOXL3), 120 μM Amplex Red (Sigma Aldrich) and 1.5 U/mL horseradish peroxidase (Sigma Aldrich) prepared in 1.2 M urea, 50 mM sodium borate buffer (pH 8.2) were then added to the corresponding wells. The above volumes were doubled in the case of 96 wells plate. The fluorescence (RFU) was read every 2.5 min for 30 min at a range of temperatures from 37° to 45° C., excitation 565 nm and emission 590 (Optima; BMG labtech). The slope of the kinetics for each well was calculated using MARS data analysis software (BMG labtech) and this value was used to deduce the IC50 value (Dotmatics).

For the compound `Cc1nn(C/C(F)=C/CN)c(C(C)C)c1Cc1ccc(S(C)(=O)=O)nc1` [Compound 43, (Z)-3-fluoro-4-(5-isopropyl-3-methyl-4-((6-(methylsulfonyl)pyridin-3-yl)methyl)-1H-pyrazol-1-yl)but-2-en-1-amine dihydrochloride], the IC50 against Bovine LOX is under 10 µM; on Human LOXL2, under 1 µM.

`Cc1nn(C/C(F)=C/CN)c(CO)c1Cc1ccc(S(=O)(=O)N(C)C)cc1Cl` [Compound 55, (Z)-4-((1-(4-amino-2-fluorobut-2-en-1-yl)-5-(hydroxymethyl)-3-methyl-1H-pyrazol-4-yl)methyl)-3-chloro-N,N-dimethylbenzenesulfonamide hydrochloride]: the results for the IC50 on Bovine LOX and against Human LOXL2 were under 10 µM and under 1 µM, respectively.

Take `Cc1c(Cc2ccc(S(=O)(=O)N(C)C)c(Cl)c2)c(Cl)nn1C/C(F)=C/CN` [Compound 42, (Z)-4-((1-(4-amino-2-fluorobut-2-en-1-yl)-3-chloro-5-methyl-1H-pyrazol-4-yl)methyl)-2-chloro-N,N-dimethylbenzenesulfonamide]: the IC50 is under 10 µM at Bovine LOX and under 1 µM at Human LOXL2.

Regarding `Cc1nn(C/C(F)=C/CN)c(C)c1Cc1ccc(S(=O)(=O)C(F)(F)F)cc1` [Compound 44, (Z)-4-(3,5-dimethyl-4-(4-((trifluoromethyl)sulfonyl)benzyl)-1H-pyrazol-1-yl)-3-fluorobut-2-en-1-amine hydrochloride], the half-maximal inhibitory concentration (IC50) is under 10 µM at Bovine LOX and under 1 µM against Human LOXL2.

Take `Cc1nn(C/C(F)=C/CN)c(C(C)C)c1Cc1ccc(S(=O)(=O)N(C)C)c(Cl)c1` [Compound 65, (Z)-4-((1-(4-amino-2-fluorobut-2-en-1-yl)-5-isopropyl-3-methyl-1H-pyrazol-4-yl)methyl)-2-chloro-N,N-dimethylbenzenesulfonamide hydrochloride]: the results for the IC50 on Bovine LOX and on Human LOXL2 were under 10 µM and under 1 µM, respectively.

As to `Cc1c(Cc2ccc(S(=O)(=O)N(C)C)c(Cl)c2)c(C(C)C)nn1C/C(F)=C/CN` [Compound 66, (Z)-4-((1-(4-amino-2-fluorobut-2-en-1-yl)-3-isopropyl-5-methyl-1H-pyrazol-4-yl)methyl)-2-chloro-N,N-dimethylbenzenesulfonamide hydrochloride], the IC50 is under 10 µM against Bovine LOX and under 1 µM against Human LOXL2.

On to `Cc1c(Cc2ccc(S(=O)(=O)N(C)C)cc2)c(C(C)(C)C)nn1C/C(F)=C/CN` [Compound 50, (Z)-4-((1-(4-amino-2-fluorobut-2-en-1-yl)-3-(tert-butyl)-5-methyl-1H-pyrazol-4-yl)methyl)-N,N-dimethylbenzenesulfonamide hydrochloride], for which the IC50 against Bovine LOX is under 10 µM; on Human LOXL2, under 1 µM.

Turning to `Cc1c(Cc2ccc(S(=O)(=O)N(C)C)c(Cl)c2)c(C(F)(F)F)nn1C/C(F)=C/CN` [Compound 57, (Z)-4-((1-(4-amino-2-fluorobut-2-en-1-yl)-5-methyl-3-(trifluoromethyl)-1H-pyrazol-4-yl)methyl)-2-chloro-N,N-dimethylbenzenesulfonamide hydrochloride], the IC50 on Bovine LOX was under 10 µM; against Human LOXL2 it was under 1 µM.

For the compound `Cc1nn(Cc2ccc(S(=O)(=O)N(C)C)c(Cl)c2)c(C(C)O)c1C/C(F)=C/CN` (stereo not drawn) [Compound 63, (Z)-4-((4-(4-amino-2-fluorobut-2-en-1-yl)-5-(l-hydroxyethyl)-3-methyl-1H-pyrazol-1-yl)methyl)-2-chloro-N,N-dimethylbenzenesulfonamide hydrochloride], the half-inhibitory concentration (IC50) against Bovine LOX is under 10 µM; on Human LOXL2, under 1 µM.

As to `COCc1c(Cc2ccc(S(=O)(=O)N(C)C)c(Cl)c2)c(C)nn1C/C(F)=C/CN` [Compound 38, (Z)-4-((1-(4-amino-2-fluorobut-2-en-1-yl)-5-(methoxymethyl)-3-methyl-1H-pyrazol-4-yl)methyl)-2-chloro-N,N-dimethylbenzenesulfonamide], the IC50 on Bovine LOX is under 10 µM; on Human LOXL2 it was under 1 µM.

For `COCc1nn(C/C(F)=C/CN)c(C)c1Cc1ccc(S(=O)(=O)N(C)C)c(Cl)c1` [Compound 39, (Z)-4-((1-(4-amino-2-fluorobut-2-en-1-yl)-3-(methoxymethyl)-5-methyl-1H-pyrazol-4-yl)methyl)-2-chloro-N,N-dimethylbenzenesulfonamide], the IC50 against Bovine LOX is under 10 µM; at Human LOXL2, under 1 µM.

In the case of `Cc1nn(C/C(F)=C/CN)c(C(C)(C)O)c1Cc1ccc(S(=O)(=O)N(C)C)c(Cl)c1` [Compound 54, (Z)-4-((1-(4-amino-2-fluorobut-2-en-1-yl)-5-(2-hydroxypropan-2-yl)-3-methyl-1H-pyrazol-4-yl)methyl)-2-chloro-N,N-dimethylbenzenesulfonamide hydrochloride], the figures for the IC50 at Bovine LOX and at Human LOXL2 were over 10 µM and over 1 µM, respectively.

As for `CC(C)c1nn(Cc2ccc(S(=O)(=O)N(C)C)c(Cl)c2)c(C(C)C)c1C/C(F)=C/CN` [Compound 64, (Z)-4-((4-(4-amino-2-fluorobut-2-en-1-yl)-3,5-diisopropyl-1H-pyrazol-1-yl)methyl)-2-chloro-N,N-dimethylbenzenesulfonamide hydrochloride], the IC50 is under 10 µM against Bovine LOX and under 1 µM against Human LOXL2.

Turning to `Cc1nn(Cc2ccc(S(=O)(=O)N(C)C)cc2Cl)c(C)c1C/C(F)=C/CN` [Compound 47, (Z)-4-((4-(4-amino-2-fluorobut-2-en-1-yl)-3,5-dimethyl-1H-pyrazol-1-yl)methyl)-3-chloro-N,N-dimethylbenzenesulfonamide hydrochloride], the IC50 against Bovine LOX is under 10 µM; against Human LOXL2, under 1 µM.

With `Cc1nn(C/C(F)=C/CN)c(Cl)c1-c1cccc(S(=O)(=O)N(C)C)c1` [Compound 35, (Z)-3-(1-(4-amino-2-fluorobut-2-en-1-yl)-5-chloro-3-methyl-1H-pyrazol-4-yl)-N,N-dimethylbenzenesulfonamide hydrochloride], the results for the IC50 at Bovine LOX and on Human LOXL2 were under 10 µM and under 1 µM, respectively.

One may read the IC50 as the concentration that gives 50% inhibition.

Source of the values: patent publication US20200069648A1, “HALOALLYLAMINE PYRAZOLE DERIVATIVE INHIBITORS OF LYSYL OXIDASES AND USES THEREOF” (Pharmaxis Ltd., priority 2017, published 2020).
